From patent US20020127202A1, “Compounds and compositions for delivering active agents” (Emisphere Technologies, Inc., priority 1996, published 2002)
Where two headings read alike, the source gives them in different places.

Experiments:
[1] = Delivery agent enhancement of rhGH bioavailability, subcutaneous administration in rats
Protocol: The delivery agents were reconstituted with distilled water and adjusted to pH 7.2-8.0 with either aqueous hydrochloric acid or aqueous sodium hydroxide. A stock solution of rhGH was prepared by mixing rhGH, D-mannitol and glycine and dissolving this mixture in 2% glycerol/water. The stock solution was then added to the delivery agent solution. Several delivery agent to active agent ratios were studied.
Male Sprague-Dawley rats weighing 200-250g were fasted for 24 hours and administered ketamine (44 mg/kg) and chlorpromazine (1.5 mg/kg) 15 minutes prior to dosing. The rats were administered one of the dosing solutions described above by subcutaneous injection, intranasal instillation, or sublingual instillation. Blood samples were collected serially from the tail artery for serum calcium concentration determination or serum rhGH concentrations. The dose of rhGH administered in these experiments was 0.1 mg/kg.
Serum rhGH concentrations were quantified by an rhGH enzyme immunoassay test kit.

[2] = In vivo delivery of rhGH in rats (serum rhGH by ELISA); details: oral, no carrier (0 mg/kg), rhGH dose 6 mg/kg
Protocol: Dosing compositions were prepared by mixing the modified amino acids and recombinant human growth hormone (rhGH) as listed in Table 1 below in a phosphate buffer solution at a pH of about 7-8.
Rats were administered the dosing composition by sublingual, oral gavage, intraduodenal administration, or colonic administration. Delivery was evaluated by using an ELISA assay for rhGH from Medix Biotech, Inc. For intracolonic administration, a sample was prepared and dosed to fasted rats at 25 mg/kg of carrier in a buffered solution containing propylene glycol (0-50%) and 1 mg/kg rhGH.

[3] = rat, in vivo, 100 mg/kg
Protocol: (§1) The delivery agents were reconstituted with distilled water and/or propylene glycol and adjusted to an apparent pH of 7.2-8.0 with either aqueous hydrochloric acid or aqueous sodium hydroxide. A stock solution of parathyroid hormone was prepared by dissolving parathyroid hormone in water. The parathyroid hormone solution was then added to the delivery agent solution. Several different delivery agent to active agent ratios were studied.
(§2) Male Sprague-Dawley rats weighing 200-250 g were fasted for 24 hours and administered ketamine (44 mg/kg) and chlorpromazine (1.5 mg/kg) 15 minutes prior to dosing. The rats were administered one of the dosing solutions described above by oral gavage or intracolonic instillation. Blood samples were collected serially from the tail artery for serum determination of parathyroid hormone concentration. Serum parathyroid hormone concentrations were quantified by a parathyroid hormone radioimmunoassay test kit.
(§3) Oral administration of solutions containing parathyroid hormone (PTH) and the non-α-amino acid delivery agents was tested in vivo in rats.

[4] = In vivo delivery of interferon α2b by intracolonic administration in rats (ELISA); details: carrier dose 100 mg/kg, interferon dose 250 μg/kg
Protocol: Propylene glycol (0-25%) was added as a solubilizing agent, if necessary.
Rats were administered the dosing composition by oral gavage, intraduodenal administration, or intracolonic administration.

[5] = In vivo delivery of heparin by oral administration in rats (APTT)
Protocol: In a test tube, 900 mg of carrier were dissolved in 3 mL of propylene glycol, and 0.299 g of sodium heparin was dissolved in 3 mL of water. The solutions were mixed by vortex. Sodium hydroxide (10 M) was added to the resulting mixture until a solution was obtained. The pH was then adjusted to 7.4+/−0.5 with concentrated hydrochloric acid, and the final solution was sonicated at for 30 minutes.
A group of fasted, conscious rats were administered the dosing compositions by oral gavage. Blood samples were collected by cardiac puncture following the administration of ketamine (44 mg/kg)., Heparin activity was determined by utilizing the activated partial thromboplastim time (APTT) according to the method of Henry, J. B., Clinical Diagnosis and Management by Laboratory Methods; Philadelphia, Pa.; W B Saunders (1979).
Heparin (100 mg/kg) was administered by oral gavage to rats, and heparin activity was determined according to the procedure of Example 44.

[6] = In vivo delivery of salmon calcitonin in rats (serum calcium)
Protocol: 400 mg of carrier were added to 2.9 mL of 25% aqueous propylene glycol. The resultant solution was stirred, and the pH was adjusted to 7.2 with sodium hydroxide (1.0 N). Water was added to bring the total volume to […]. […] Calcitonin (10 μg) was added to the solution. The total calcitonin concentration was 2.5 μg/mL.
For each sample a group of fasted rats were anesthetized. The rats were administered the dosing composition by oral gavage, intracolonic instillation, or intraduodenal administration. Blood samples were collected serially from the tail artery. Serum calcium was determined by testing with a Calcium Kit (Sigma Chemical Company, St. Louis, Mo., USA).

[7] = Delivery agent enhancement of parathyroid hormone bioavailability in rats (serum PTH radioimmunoassay)
Protocol: as §1, §2, §3

[8] = Delivery agent enhancement of salmon calcitonin bioavailability, subcutaneous administration in rats (serum calcium); format: in vivo, Male Sprague-Dawley rats; details: sCT 0.2 μg/kg
[9] = carrier dose 300 mg/kg, heparin dose 100 mg/kg
[10] = intracolonic, carrier dose 100 mg/kg, PTH dose 25 μg/kg
[11] = subcutaneous, delivery agent dose 1.0 mg/kg, rhGH 0.1 mg/kg
[12] = subcutaneous, delivery agent dose 2.5 mg/kg, rhGH 0.1 mg/kg

rhGH: recombinant human growth hormone, active agent dosed alone (Comparative Examples 5A, 16A)
Peak Serum [rhGH] ([1]; no delivery agent (0.0 mg/kg), rhGH alone): 4 ± 2 ng/mL | Mean Peak Serum Levels of rhGH [2]: <10 ± 10 ng/mL

COc1ccccc1/C=C/C(=O)Nc1ccc(CCC(=O)O)cc1 [Compound LXXXVI]
Peak Serum [PTH] [3]: 40 ± 12 pg/mL

O=C(O)CCCCCCCNC(=O)/C=C/c1ccccc1O [Compound XXI]
Mean Peak Serum Levels of Interferon [4]: 4238 ± 2789 pg/mL

O=C(O)CCCNC(=O)C1CCCCC1 [Compound V]
Mean Peak APTT [5, 9]: 87.4 ± 34.1 s | Maximum Decrease in Serum Calcium ([6]; oral, carrier dose 400 mg/kg, calcitonin dose 10 μg/kg): 18.35 +/− 2.87 % below baseline

O=C(O)CCCCCCCNC(=O)c1ccccc1Br [CXIV]
Peak Serum [PTH] [7, 10]: 65 ± 15 pg/mL | Percent Decrease in Serum Calcium ([8]; delivery agent dose 20 μg/kg): 20 ± 3%

O=C(O)CCCCCCCNC(=O)c1cccc([N+](=O)[O-])c1 [Compound CXV]
Peak Serum [rhGH] [1, 11]: 25 ± 3 ng/mL

O=C(O)CCCNC(=O)C1CCCCCC1 [Compound II]
Mean Peak APTT [5, 9]: 25.45 ± 2.8 s

CN(C)c1cccc(C(=O)Nc2ccc(CCCC(=O)O)cc2)c1 [LVIII]
Peak Serum [PTH] [3]: 145 ± 25 pg/mL

CCC(C(=O)NCCCC(=O)O)C1CCCCC1 (stereo not shown) [Compound III]
Mean Peak APTT [5, 9]: 38.64 ± 17 s

O=C(O)CCCCCCCNC(=O)c1ccccc1O [CXXIII]
Peak Serum [rhGH] [1, 11]: 22 ± 3 ng/mL | Peak Serum [rhGH] [1, 12]: 25 ± 5 ng/mL | Peak Serum [rhGH] ([1]; subcutaneous, delivery agent dose 25 mg/kg, rhGH 0.1 mg/kg): 30 ± 6 ng/mL | Peak Serum [PTH] [7, 10]: 130 ± 20 pg/mL | Peak Serum [PTH] ([7]; oral, carrier dose 250 mg/kg, PTH dose 25 μg/kg): 20 ± 6 pg/mL | Peak Serum [PTH] ([7]; oral, carrier dose 250 mg/kg, PTH dose 100 μg/kg): 75 ± 25 pg/mL | Percent Decrease in Serum Calcium ([8]; delivery agent dose 2 μg/kg): 17 ± 3% | Percent Decrease in Serum Calcium ([8]; delivery agent dose 20 μg/kg): 25 ± 4% | Percent Decrease in Serum Calcium ([8]; delivery agent dose 200 μg/kg): 25 ± 5% | Percent Decrease in Serum Calcium ([8]; delivery agent dose 2000 μg/kg): 26 ± 5%

COc1ccccc1/C=C/C(=O)Nc1ccc(CCCC(=O)O)cc1 [LXXXIX]
Peak Serum [PTH] [3]: 70 ± 15 pg/mL

O=C(O)CCCCCCCNC(=O)c1ccccc1O [Compound XIX]
Mean Peak APTT [5, 9]: 119.99 ± 56.3 s | Maximum Decrease in Serum Calcium ([6]; intracolonic, carrier dose 10 mg/kg, calcitonin dose 3 μg/kg): 26.49 +/− 12.3 % below baseline | Maximum Decrease in Serum Calcium ([6]; oral, carrier dose 200 mg/kg, calcitonin dose 7.5 μg/kg): 25.48 +/− 4.7 % below baseline

O=C(O)CCCCCCNC(=O)c1ccccc1O [CXI]
Peak Serum [rhGH] [1, 12]: 16 ± 2 ng/mL | Percent Decrease in Serum Calcium ([8]; delivery agent dose 20 μg/kg): 21 ± 4%

O=C(O)CCCCCCCCCNC(=O)c1ccccc1O [Compound XXXI]
Mean Peak APTT ([5]; carrier dose 50 mg/kg, heparin dose 10 mg/kg): 50.85 ± 9.1 s | Mean Peak APTT ([5]; carrier dose 50 mg/kg, heparin dose 25 mg/kg): 127.56 ± 22.97 s

O=C(O)CCCc1ccc(NC(=O)CCOc2ccccc2)cc1 [CVIII]
Peak Serum [PTH] [3]: 115 ± 20 pg/mL
